Test [1] relates to H3K18Ac in HB-CLS-2 cells. As to the kind of experiment: H3K18AC in-cell western (ICW) assay. The class given is cell-based. As to conditions: read-out: CREBBP ICW IC50. Put shortly: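 In-cell western: after methanol fixation, blocking, overnight 4° C anti-H3K18Ac staining, then 800CW secondary plus DRAQ5 for DNA content, integrated intensities were scanned at 800 and 700 nm. Before this, compound exposure lasted 2 hr at 37° C in HB-CLS-2 cells plated 16–24 hours earlier. Values expressed as IC50 (μM).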

For test [2], the target named is T1, CREBBP (1084-1701) (Homo sapiens, UniProt Q92793).
T1 construct: measured in the following biochemical assay using CREBBP (1084-1701); purchased
As to the kind of experiment: Biochemical assay for CREBBP (1084-1701), SAMDI. The following applies: read-out: CREBBP Biochemistry IC50. The essentials: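 Acetyltransferase activity measured by SAMDI mass spectrometry after capture on biochip. Enzyme sat with compound 30 min at RT before acetyl-CoA and biotinylated H3 11-25 (K14R, K23R) peptide were added for 30 min at RT. Formic acid quench, bicarbonate neutralisation; IC50 values reported.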

Test [3] deals with 647V cells. As to the kind of experiment: High throughput proliferation (HTP) assay. It counts as cell-based. As to conditions: read-out: CREBBP HTP IC50. Put shortly: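 Proliferation IC50 (micromolar) derived from a 7-day CellTiter-Glo viable-cell readout in 647V cells exposed, in triplicate, to rising compound concentrations; cells grown in DMEM plus 15% heat-inactivated FBS at 37° C under 5% CO2.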

The target of test [4] is T2, EP300 (P300(1048-1664)) (Homo sapiens, UniProt Q09472).
T2 construct: P300(1048-1664)
T2 sequence (Q09472 1048-1664): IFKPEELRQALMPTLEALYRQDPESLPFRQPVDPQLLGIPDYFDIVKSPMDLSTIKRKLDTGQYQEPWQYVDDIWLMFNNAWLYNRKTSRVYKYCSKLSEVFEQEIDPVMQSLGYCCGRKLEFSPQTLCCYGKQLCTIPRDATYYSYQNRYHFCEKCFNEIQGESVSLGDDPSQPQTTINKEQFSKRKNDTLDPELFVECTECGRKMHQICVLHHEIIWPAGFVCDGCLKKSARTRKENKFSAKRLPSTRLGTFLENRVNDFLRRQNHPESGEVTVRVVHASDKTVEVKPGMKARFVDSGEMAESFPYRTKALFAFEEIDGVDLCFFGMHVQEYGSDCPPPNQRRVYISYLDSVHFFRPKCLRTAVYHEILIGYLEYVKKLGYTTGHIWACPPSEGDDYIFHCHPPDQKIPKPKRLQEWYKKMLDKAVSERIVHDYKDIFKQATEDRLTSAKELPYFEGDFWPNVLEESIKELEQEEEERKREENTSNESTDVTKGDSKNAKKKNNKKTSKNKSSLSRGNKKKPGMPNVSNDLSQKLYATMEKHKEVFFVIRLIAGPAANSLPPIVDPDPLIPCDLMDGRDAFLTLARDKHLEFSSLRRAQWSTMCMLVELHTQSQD
The experiment in a line: Biochemical assay for EP300, SAMDI. The following applies: read-out: EP300 Biochemistry IC50. From the text: The following example describes materials and methods relating to a biochemical assay for EP300. IC50 values (micromolar (μM)) are summarized in Table 1, Table 2, and Table 3 under the column labeled: “EP300 Biochemistry IC50 (micromolar).”

Where [5] appears, read: Homo sapiens, 647-V, high throughput proliferation.

The structures appear in SMILES notation. pIC50: −log10 of the molar value. Where two headings read alike, the source gives them in different places.

T1 sequence (Q92793 1084-1701): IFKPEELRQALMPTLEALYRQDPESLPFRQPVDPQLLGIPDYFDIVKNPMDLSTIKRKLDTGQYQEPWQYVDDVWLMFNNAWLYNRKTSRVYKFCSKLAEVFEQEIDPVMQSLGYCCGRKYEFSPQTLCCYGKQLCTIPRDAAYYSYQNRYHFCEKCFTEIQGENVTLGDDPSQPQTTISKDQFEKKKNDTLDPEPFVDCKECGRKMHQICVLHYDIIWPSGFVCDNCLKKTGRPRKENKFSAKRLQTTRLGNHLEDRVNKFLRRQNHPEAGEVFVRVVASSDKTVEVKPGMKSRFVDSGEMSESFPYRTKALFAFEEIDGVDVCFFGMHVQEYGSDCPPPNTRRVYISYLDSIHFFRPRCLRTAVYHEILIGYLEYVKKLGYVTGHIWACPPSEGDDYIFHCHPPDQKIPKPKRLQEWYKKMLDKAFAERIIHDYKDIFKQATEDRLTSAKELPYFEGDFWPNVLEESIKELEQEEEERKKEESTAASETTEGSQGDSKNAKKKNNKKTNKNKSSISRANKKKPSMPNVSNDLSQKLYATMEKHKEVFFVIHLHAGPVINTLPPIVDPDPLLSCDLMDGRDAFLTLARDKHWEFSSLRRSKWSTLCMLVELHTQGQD

As usually defined, the pIC50 is the IC50 on a negative log10 scale, so that one unit is a factor of ten. In the case of `CCn1ncc(CN(C)C(=O)c2nc(-c3nc4c[nH]nc4cc3C)nc3ccc(Cl)cc23)c1C` [Compound 522], the pIC50 is 4.78 in test [1] (H3K18Ac in-cell western); 4.58 in test [2] (SAMDI); 5.09 in test [3] (setting [5]); 4.78 in test [4] (EP300, SAMDI).
For `CCc1ncc(CN(C)C(=O)c2cc(-c3cc(C(=O)NC)n(C)n3)nc3ccc(C4CC4)cc23)n1C` [Compound 636], the pIC50 in test [1] (2 h, H3K18Ac in HB-CLS-2 cells, 2 hrs compound incubation) is 7.18; in test [2] (Peptide #233, Acetyl-CoA, SAMDI mass spectrometry) it was 7.61; in test [3] (Homo sapiens, 647-V, 168 h, 647V cells, day 7, CellTiter-Glo) it was 6.88; in test [4] (P300(1048-1664), Peptide #233, Ac-CoA, SAMDI mass spectrometry) it was 8.25.
With `CCn1ncc(CN(C)C(=O)c2nc(-c3ccnc(NC(C)=O)c3)nc3ccc(Cl)cc23)c1C` [Compound 135], the pIC50 is 5.29 in test [1] (H3K18Ac in-cell western); 5.12 in test [2] (SAMDI); 5.17 in test [3] (setting [5]); 5.15 in test [4] (EP300, SAMDI).
Take `CCn1ncc(CN(C)C(=O)c2nc(-c3cc(C(=O)Nc4ccccc4)n(C)n3)nc3ccc(Cl)cc23)c1C` [Compound 396]: the negative logarithm of the IC50 (pIC50) in test [1] (H3K18Ac in-cell western, HB-CLS-2 cells) is 4.70; in test [2] (SAMDI) it was 4.30; in test [3] (Homo sapiens, 647-V, high throughput proliferation, 647V cells), 5.08; in test [4] (EP300, SAMDI), 4.46.
`CCn1ncc(CN(C)C(=O)c2nc(-c3cc(Cl)cc(NCCNC)c3)nc3ccc(Cl)cc23)c1C` [Compound 14]: the negative logarithm of the IC50 (pIC50) in test [1] (H3K18Ac in-cell western) is 6.85; in test [2] (SAMDI) it was 7.85; in test [3] (high throughput proliferation), 7.41; in test [4] (EP300, SAMDI), 8.54.
Consider `CCn1ncc(CN(C)C(=O)c2nc(-c3cc4c(NC)noc4cc3C)nc3ccc(Cl)cc23)c1C` [Compound 624], for which the pIC50 in test [1] (H3K18Ac in-cell western) is 6.95; in test [2] (SAMDI), 7.74; in test [3] (setting [5]) it was 6.55; in test [4] (EP300, SAMDI), 8.04.
In the case of `CCn1ncc(CN(C)C(=O)c2nc(-c3ccc(OCCO)c(F)c3)nc3ccc(Cl)cc23)c1C` [Compound 111], the pIC50 in test [1] (H3K18Ac in-cell western) was 5.59; in test [2] (SAMDI), 5.19; in test [3] (setting [5]), 5.62; in test [4] (EP300, SAMDI), 5.33.
In the case of `CCc1ncc(CN(C)C(=O)c2nc(-c3ccc(NCCN(C)C)nc3C)nc3ccc(Cl)cc23)n1C` [Compound 605], the pIC50 in test [1] (H3K18Ac in-cell western) was 6.03; in test [2] (SAMDI) it was 6.27; in test [3] (setting [5]), 6.35; in test [4] (EP300, SAMDI), 5.51.
The matching figures for `CCc1ncc(CN(C)C(=O)c2nc(-c3cc(Cl)cc(NCCNC)c3)nc3ccc(Cl)cc23)n1C` [Compound 555]: 6.65, 7.64, 6.99 and 8.15.
The like results for `CCn1ncc(CN(C)C(=O)c2cc(-c3ccc(NCCNC)c(C)n3)nc3ccc(C4CC4)cc23)c1C` [Compound 449] were, in that order, 6.66, 7.30, 6.87 and 7.29.
The like results for `CCn1ncc(CN(C)C(=O)c2nc(-c3cnnc(N)c3)nc3ccc(Cl)cc23)c1C` [Compound 434] were, in that order, 5.77, 5.46, 5.65 and 5.57.
As to `CCc1ncc(CN(C)C(=O)c2cc(-c3ccc(NC4CN(C(C)=O)C4)c(C)n3)nc3ccc(Cl)cc23)n1C` [Compound 549], the pIC50 in test [1] (H3K18Ac in-cell western) is 6.62; in test [2] (SAMDI), 7.46; in test [3] (setting [5]), 6.82; in test [4] (EP300, SAMDI), 7.91.
The matching figures for `CCn1ncc(CN(C)C(=O)c2nc(-c3cc(C)nc(NCCNC)c3)nc3ccc(COC)cc23)c1C` [Compound 516]: 6.71, 7.23, 6.90 and 7.33.
